Laboratory results reported in article PMC8116058, “De novo macrocyclic peptides dissect energy coupling of a heterodimeric ABC transporter by multimode allosteric inhibition” (eLife, 2021).
Positions of bridges follow the written chain, without caps; N, C: chain ends. Non-standard residues stand in square brackets, D forms with d. Residues, ends and D or L forms follow the SMILES beside them. *: point of attachment. 5FAM = O=C1OC2(c3ccc(O)cc3Oc3cc(O)ccc32)c2ccc(C(=O)*)cc21; βAla = NCCC(=O)O

Legend:
[1] = Fluorescence anisotropy with empty liposomes (specificity control); format: binding; details: CP^F 50 nM
Protocol: In order to analyze the binding affinity and specificity of CPs to TmrAB, we established a fluorescence polarization assay. Fluorescein-labeled CP^Fs were incubated with increasing concentrations of TmrAB reconstituted in liposomes at a protein-to-lipid ratio of 1:20 (w/w). […] To address whether the CPs recognize a linear or non-linear epitope, we examined the binding of CP^Fs after disrupting the quaternary and tertiary structure of TmrAB complexes by adding anionic detergent SDS.
Figure 2. […] (A, B) Equilibrium binding analysis. Fluorescence anisotropy of CP^Fs (50 nM) was determined at λex/em = 485/520 nm with increasing concentrations of TmrAB which was reconstituted in liposomes. TmrAB concentrations were calculated based on the random (50/50%) orientation in proteoliposomes ([Stefan et al., 2020]). As a control, equal amounts of empty liposomes were added to CP^Fs (dashed lines, open symbols). The difference in fluorescence polarization was normalized to free (0%) and 100% bound CP^F. Mean values ± SD (n = 3) are shown, and data were analyzed by a one-site binding model. […] Streptavidin beads loaded with CP14^B (1 µM) were mixed with purified TmrAB (60 nM) for 1 hr at 4°C. Beads were washed and bound TmrAB was eluted by adding SDS loading buffer for 10 min at 95°C. Amounts of TmrA in input (I), flow-through (FT), wash fraction (W), and eluate (E) were analyzed by SDS-PAGE and immunoblotting (α-His). Beads without CP^B served as negative control (right panel). (D) One-step purification of TmrAB via immobilized CP14^B matrices. Streptavidin-agarose beads were loaded with CP14^B (1 µM) and mixed with DDM-solubilized membranes of E. coli containing TmrAB as described in (C). Bound TmrAB was eluted in SDS loading buffer and analyzed by SDS-PAGE (silver stain). (E) Native mass spectrometry. TmrAB (4 µM) was buffer exchanged to ESI buffer and incubated with a 2-fold molar excess of CP14^F for 10 min on ice. Protein complexes were investigated by ESI-TOF-mass spectrometry. […] Figure 2—source data 1. Source data for Figure 2. Figure 2—figure supplement 1. […] (A) CP^Bs-mediated isolation of solubilized TmrAB. Streptavidin matrices were loaded with CP^Bs (1 µM) and incubated with purified TmrAB (60 nM) for 1 hr at 4°C. Beads without CP^Bs served as control (see Figure 2C). Bound TmrAB complexes were eluted by the addition of SDS loading buffer for 10 min at 95°C. TmrAB in input (I), flow-through (FT), washing fraction (W), and eluate (E) was analyzed by SDS-PAGE and immunoblotting (α-His). […] Bound TmrAB complexes were eluted in SDS loading buffer and analyzed by SDS-PAGE (silver stain). […] CP^F-TmrAB complexes were analyzed by gel filtration. […] Fluorescence anisotropy was determined at λex/em = 485/520 nm. […]

TmrAB in liposomes = assay: ATP hydrolysis assay; format: biochemical, Thermus thermophilus; details: TmrAB in liposomes 100 nM; ATP 2 mM; CP^F 1 µM; 10 min 45°C; without CP 1.49, autohydrolysis 0.62
Excerpt: In order to investigate the functional impact of CPs, we examined the effect of the CPs on ATP hydrolysis and substrate transport of TmrAB (Figure 3A). We reconstituted TmrAB in liposomes and first assayed the ATPase activity. […] We next set out to investigate peptide transport by TmrAB using a filter-based transport assay. To investigate whether CPs are recognized as substrates by TmrAB, we added fluorescein-labeled CP^Fs and examined ATP-dependent translocation. In contrast to the linear substrate peptide C4F, none of the CP^Fs were transported by TmrAB (Figure 3C). Next, we examined ATP-dependent transport of C4F peptides in the presence and absence of the different CPs.
Figure 3. CP^Fs are potent inhibitors of ATP turnover and substrate transport. (A) Experimental scheme of ATP hydrolysis and peptide transport by TmrAB. (B) CP^Fs inhibit ATP hydrolysis. TmrAB in liposomes (100 nM) was incubated with ATP (2 mM, traced with [γ^32P]-ATP), and MgCl2 (5 mM) in the presence and absence of CP^Fs (1 µM) for 10 min at 45°C. Autohydrolysis was determined in the absence of TmrAB, and background turnover was conducted in the presence of EDTA (10 mM). Release of [γ^32P] was quantified by thin layer chromatography. (C) CP^Fs are not transported by TmrAB. TmrAB (0.4 µM) reconstituted in liposomes was incubated with C4F peptide (3 µM) or CP^Fs (1 µM) in the presence of ATP/ADP (3 mM) and MgCl2 (5 mM) for 5 min at 45°C. Since CP^Fs were dissolved in maximal 0.5% (v/v) of DMSO, C4F plus 0.5% DMSO served as control. Proteoliposomes were washed on filter plates, and transported peptides were quantified at λex/em = 485/520 nm. (D) Inhibition of substrate translocation. TmrAB in liposomes (0.4 µM) were incubated with C4F peptide (3 µM), ATP/ADP (3 mM), and MgCl2 (5 mM) in the presence and absence of CP^Fs (1 µM) for 15 min at 45°C. Transported peptides were quantified as described in (C). In (B–C), mean values ± SD (n = 3) are shown. Figure 3—source data 1. Source data for Figure 3.
TmrAB reconstituted in liposomes (100 nM) were incubated with ATP (2 mM) traced with [γ^32P]-ATP (Hartmann Analytic), ouabain (1 mM), NaN3 (5 mM), EGTA (50 µM), MgCl2 (3 mM), and CP^Fs (1 µM) for 10 min at 45°C. Autohydrolysis and background hydrolysis were examined in the absence of proteoliposomes or the presence of EDTA (10 mM). Samples were spotted onto polyethyleneimine cellulose plates (Merck Millipore), and thin-layer chromatography was performed with 0.8 M LiCl-acetic acid pH 3.2. Plates were developed overnight on Exposure Cassette-K (Bio-Rad) and evaluated on Personal Molecular Imager System (Bio-Rad). Data were recorded in triplicates and the mean values ± SD (n = 3) are shown.

SMILES | Bound CP^F ([1]; amount equal to 0.5000 µM) | ATP hydrolysis (TmrAB in liposomes) | Bound CP^F ([1]; amount equal to 0.2500 µM)
CC[C@H](C)[C@@H]1NC(=O)[C@H]([C@@H](C)O)NC(=O)[C@H](CC(C)C)NC(=O)[C@H](Cc2c[nH]c3ccccc23)NC(=O)[C@H](Cc2ccccc2)NC(=O)[C@H](CC(N)=O)NC(=O)[C@H](CCC(=O)O)NC(=O)[C@H](CC(C)C)NC(=O)[C@H](CS)NC(=O)[C@H](Cc2c[nH]cn2)NC(=O)[C@H](CO)NC(=O)[C@@H](Cc2ccc(O)cc2)NC(=O)CSC[C@@H](C(=O)NCC(=O)N[C@@H](CO)C(=O)NCCC(=O)NCCC(=O)N[C@@H](CCCNC(=N)N)C(=O)N[C@@H](CCCCNC(=O)c2ccc3c(c2)C(=O)OC32c3ccc(O)cc3Oc3cc(O)ccc32)C(N)=O)NC(=O)[C@H](CC(C)C)NC1=O [CP6] ({CH2CO}-[dY]SHCLENFWLTILCGS[βAla][βAla]RK(5FAM)-NH2; thioether N-14) | -6.19% | 0.54 mmol Pi (g*min)^-1 | –
CC(C)C[C@@H]1NC(=O)[C@H](Cc2ccccc2)NC(=O)CNC(=O)[C@H](CO)NC(=O)[C@H](Cc2ccccc2)NC(=O)[C@H](CC(=O)O)NC(=O)[C@@H]2CCCN2C(=O)[C@H]([C@@H](C)O)NC(=O)[C@@H](Cc2ccc(O)cc2)NC(=O)CSC[C@@H](C(=O)NCC(=O)N[C@@H](CO)C(=O)NCCC(=O)NCCC(=O)N[C@@H](CCCNC(=N)N)C(=O)N[C@@H](CCCCNC(=O)c2ccc3c(c2)C(=O)OC32c3ccc(O)cc3Oc3cc(O)ccc32)C(N)=O)NC(=O)[C@H](C)NC(=O)[C@H](CC(N)=O)NC(=O)[C@H](CCCNC(=N)N)NC(=O)[C@H](CC(C)C)NC(=O)[C@H](Cc2ccccc2)NC(=O)[C@H](C)NC1=O [CP12] ({CH2CO}-[dY]TPDFSGFLAFLRNACGS[βAla][βAla]RK(5FAM)-NH2; thioether N-16) | -0.19% | 0.37 mmol Pi (g*min)^-1 | –
CC[C@H](C)[C@@H]1NC(=O)[C@H](Cc2c[nH]c3ccccc23)NC(=O)[C@H](CC(N)=O)NC(=O)[C@H](C)NC(=O)[C@H](CO)NC(=O)[C@@H]2CCCN2C(=O)[C@H](CC(=O)O)NC(=O)[C@@H](Cc2ccc(O)cc2)NC(=O)CSC[C@@H](C(=O)NCC(=O)N[C@@H](CO)C(=O)NCCC(=O)NCCC(=O)N[C@@H](CCCNC(=N)N)C(=O)N[C@@H](CCCCNC(=O)c2ccc3c(c2)C(=O)OC32c3ccc(O)cc3Oc3cc(O)ccc32)C(N)=O)NC(=O)[C@H]([C@@H](C)O)NC(=O)[C@H](CC(C)C)NC(=O)[C@H](CC(C)C)NC(=O)[C@H](C(C)C)NC(=O)[C@H](CC(C)C)NC1=O [CP13] ({CH2CO}-[dY]DPSANWILVLLTCGS[βAla][βAla]RK(5FAM)-NH2; thioether N-14; C-terminus assumed) | – | 0.39 mmol Pi (g*min)^-1 | 3.65%
CC(C)[C@@H]1NC(=O)[C@H](Cc2ccccc2)NC(=O)[C@@H]2CCCN2C(=O)[C@H](CC(N)=O)NC(=O)[C@H](Cc2c[nH]c3ccccc23)NC(=O)[C@H](C(C)C)NC(=O)[C@H](Cc2ccc(O)cc2)NC(=O)[C@H](Cc2ccccc2)NC(=O)[C@@H](Cc2ccc(O)cc2)NC(=O)CSC[C@@H](C(=O)NCC(=O)N[C@@H](CO)C(=O)NCCC(=O)NCCC(=O)N[C@@H](CCCNC(=N)N)C(=O)N[C@@H](CCCCNC(=O)c2ccc3c(c2)C(=O)OC32c3ccc(O)cc3Oc3cc(O)ccc32)C(N)=O)NC(=O)[C@H](CCCCN)NC(=O)[C@H](Cc2ccccc2)NC1=O [CP14] ({CH2CO}-[dY]FYVWNPFVFKCGS[βAla][βAla]RK(5FAM)-NH2; thioether N-12; C-terminus assumed) | – | 0.39 mmol Pi (g*min)^-1 | -5.24%
